Read-outs that look alike come from different tables or passages of the source.
Columns and labels:
ATX = ATX (Homo sapiens (Human), UniProt Q13822); experiment: ATX enzyme inhibition assay (Amplex UltraRed/choline oxidase/HRP, 16:0 Lyso PC substrate); assay type: biochemical
Experimental: All compounds were prepared as a 10 mM DMSO stock solution.
Solutions at pH 8.5 and pH 7.5 were prepared respectively with the following formulations:
All compounds, including the positive control compound, were diluted 5-fold from 10 mM to 2 mM with DMSO in the first step. The mixture was then diluted to 100 μM with 1× assay buffer.
3. Separate Detection of Compounds with 1× Assay Buffer at Two pH Values:
a) 5 μL of 10× compound diluent was added to a 384-well plate (Greiner 781209) using a motorized pipette (see the “experimental preparation” step). 5 μL of 1× assay buffer containing 5% DMSO was added to both negative and positive control wells. The plate was centrifuged at 300 rpm for 1 minute at room temperature.
b) 2× ATX ([…]) was prepared with 1× assay buffer, and 25 μL of 2× ATX was added to the plate using a motorized pipette. 25 μL of 1× assay buffer was added to the negative control wells and 25 μL of 2× ATX was added to the positive control wells. The plate was centrifuged at 300 rpm for 1 minute at room temperature.
The plate was incubated at room temperature for 10 minutes.
c) 2.5× working solution containing Amplex UltraRed reagent (125 μM), HRP (2.5 U/mL), choline oxidase (1.25 U/mL), and 16:0 Lyso PC (75 μM) was prepared with 1× assay buffer. 20 μL of 2.5× working solution was added to all reaction wells using a motorized pipette. The plate was centrifuged at 300 rpm for 1 minute at room temperature.
d) The plate was detected by SpectraMax with the following procedures: fluorescence mode; excitation at 550 nm; emission at 590 nm; kinetics; read once every 2 minutes; read continuously for 60 minutes.
The calculation formula of % inhibition (i.e., % inhibition rate) was as follows: […]
V0: X-axis is taken as 0 to 30 minutes, Y-axis is taken as fluorescence readings, and the slope corresponding to the straight line fitted by the software GraphPad Prism 8 is the initial response rate.
V0max: Average V0 of the positive control wells in the plate.
V0min: Average V0 of the negative control wells in the plate.
The IC50 of the compounds was calculated from a nonlinear regression line (dose-initial response rate) fitted by % inhibition and log value of compound concentration using the software GrahPad Prism 8.

[1] = test system: plasma LPA 18:1 and LPA 18:2; experiment: Human plasma ex vivo assay (LPA 18:1 / 18:2 by LC-MS/MS); assay type: biochemical; conditions: 37° C., 2 hours
Experimental: The collected plasma was centrifuged at 4000 rpm for 15 minutes at 4° C. The supernatant was aliquoted into a 96-well plate (25 μL per well), sealed, and frozen at −80° C. for further use.
LPA 17:0 powder was dissolved in a mixed solution of water: isopropanol: formic acid (1:1:1) to a final concentration of […]. The mixture was aliquoted and frozen at −20° C.
1 volume of formic acid was added to 1000× methanol, mixed well, and stored at 4° C. a) The 96-well plate containing frozen plasma was removed from the −80° C. freezer and thawed on ice at room temperature. b) 6 μL of 50× LPA 17:0 (internal standard) and 264 μL of 0.1% FA were added to a clean well of the 96-well plate; the final concentration of LPA 17:0 (internal standard) was 50 nM. c) 6× compound was 1:3 serially diluted to a total of 8 concentrations, and 5 μL of the compound per well was added to the 96-well plate containing plasma. The maximum final concentration of the compound was 10 μM, and the final concentration of DMSO was 0.1%. The plate was centrifuged at 300 rpm for 30 seconds. The DMSO control sample reacted for 0 hours was used as the minimum value (Min), and the DMSO control sample reacted for 2 hours was used as the maximum value (Max). […]
d) The DMSO sample reacted for 0 hours was rapidly transferred to 0.1% FA solution containing the internal standard in step b) to terminate the reaction and precipitate plasma proteins. e) The 96-well plate containing plasma and compounds was rapidly incubated in a 37° C. incubator for 2 hours. After the incubation, 6 μL of 10× LPA 17:0 and 264 μL of 0.1% FA were added to each well to terminate the reaction and precipitate plasma proteins. […]
f) All the samples were mixed well with a pipette, and centrifuged at 4000 rpm for 10 minutes at 4° C. 150 μL of the supernatant was added to a 96-well U-bottom plate (Thermo 267245), sealed with silica gel, and then loaded. The contents of LPA 18:1 and LPA 18:2 in the samples were detected by LC-MS/MS system.
LPA 18:1(or 18:2) relative content=LPA 18:1(or 18:2) peak area/LPA 17:0 peak area Percentage reduction (%) in plasma LPA18:1(or 18:2)=(Max−X)/(Max−Min)*100 Max: LPA 18:1 (or 18:2) relative content of the DMSO sample reacted for 2 hours Min: LPA 18:1 (or 18:2) relative content of the DMSO sample reacted for 0 hours X: LPA 18:1 (or 18:2) relative content of the sample after compound treatment for 2 hours The IC50 of the compounds was calculated by fitting a nonlinear regression through percentage reduction in plasma LPA 18:1 (or 18:2) and log value of compound concentration using the software GraphPad Prism 8.
Y=Bottom+(Top−Bottom)/(1+10^((Log IC50−X)*Hill Slope))

[2] = assay buffer pH 8.5, read-out: IC50 (nM) pH 8.5
[3] = LPA 18:1, read-out: Human plasma ex vivo assay IC50 (18:1 LPA)
[4] = LPA 18:2, read-out: Human plasma ex vivo assay IC50 (18:2 LPA)

Row | SMILES | IC50 (ATX; [2]) | other results
1 | C[C@@H]1CN(CC(=O)N2CC(O)C2)CCN1c1cc(F)c2nc3c(c(N(C)c4nc(-c5ccc(F)cc5)c(C#N)s4)c2c1)CC[C@H]3O (single isomer, unassigned) [Example E6-b] | 14 nM | IC50 [1, 3]: 387 nM; IC50 [1, 4]: 431 nM
2 | C[C@H]1CN(CC(=O)N2CC(O)C2)CCN1c1cc(F)c2nc3c(c(N(C)c4nc(-c5ccc(F)cc5)c(C#N)s4)c2c1)CC[C@@H]3O (single isomer, unassigned) [Example E7-a] | 15.2 nM | IC50 [1, 3]: 369 nM; IC50 [1, 4]: 351 nM
3 | C[C@H]1CN(c2cc(F)c3nc4c(c(N(C)c5nc(-c6ccc(F)cc6)c(C#N)s5)c3c2)CC[C@@H]4O)CCN1CC(=O)N1CC(O)C1 (single isomer, unassigned) [Example E8-a] | 22.5 nM | IC50 [1, 3]: 280 nM; IC50 [1, 4]: 324 nM
4 | C[C@@H]1CN(c2cc(F)c3nc4c(c(N(C)c5nc(-c6ccc(F)cc6)c(C#N)s5)c3c2)CC[C@@H]4O)CCN1CC(=O)N1CC(O)C1 (single isomer, unassigned) [Example E9-a] | 21.5 nM | IC50 [1, 3]: 464 nM; IC50 [1, 4]: 392 nM
5 | C[C@@H]1CN(c2cc(F)c3nc4c(c(N(C)c5nc(-c6ccc(F)cc6)c(C#N)s5)c3c2)CC[C@H]4O)CCN1CC(=O)N1CC(O)C1 (single isomer, unassigned) [Example E9-b] | 18.4 nM | IC50 [1, 3]: 209 nM; IC50 [1, 4]: 199 nM
6 | CN(c1nc(-c2ccc(F)cc2)c(C#N)s1)c1c2c(nc3c(F)cc(N4CC5(CN(CC(=O)N6CC(CO)C6)C5)C4)cc13)COC2 [Example A28] | 226 nM | –
7 | CN(c1nc(-c2ccc(F)cc2)c(C#N)s1)c1c2c(nc3c(F)cc(N4CC5(CN(CC(=O)N6CC(CO)C6)C5)C4)cc13)CCO2 [Example A29] | 111 nM | –
8 | C[C@H]1CN(CC(=O)N2CC(O)C2)CCN1c1cc(F)c2nc3c(c(N(C)c4nc(-c5ccc(F)cc5)c(C#N)s4)c2c1)COC3 [Example A30] | 22.1 nM | –
9 | C[C@@H]1CN(CC(=O)N2CC(O)C2)CCN1c1cc(F)c2nc3c(c(N(C)c4nc(-c5ccc(F)cc5)c(C#N)s4)c2c1)COC3 [Example A31] | 26.9 nM | –
10 | C[C@@H]1CN(c2cc(F)c3nc4c(c(N(C)c5nc(-c6ccc(F)cc6)c(C#N)s5)c3c2)COC4)CCN1CC(=O)N1CC(O)C1 [Example A32] | 94.3 nM | –
11 | C[C@H]1CN(c2cc(F)c3nc4c(c(N(C)c5nc(-c6ccc(F)cc6)c(C#N)s5)c3c2)COC4)CCN1CC(=O)N1CC(O)C1 [Example A33] | 44.6 nM | –
12 | CN(c1nc(-c2ccc(F)cc2)c(C#N)s1)c1c2c(nc3c(F)cc(N4CC5(CN(CC(=O)N6CC(C)(O)C6)C5)C4)cc13)COC2 [Example A34] | 446 nM | –
13 | CN(c1nc(-c2ccc(F)cc2)c(C#N)s1)c1c2c(nc3c(F)cc(N4CCN(CC(=O)N5CC(C)(O)C5)CC4)cc13)COC2 [Example A35] | 66.8 nM | –
14 | CN(c1nc(-c2ccc(F)cc2)c(C#N)s1)c1c2c(nc3c(F)cc(N4CC5(CN(C(=O)[C@@H]6CCOC6)C5)C4)cc13)CCO2 [Example C11] | 61.9 nM | IC50 (ATX; assay buffer pH 7.5, read-out: IC50 (nM) pH 7.5): 132 nM
15 | CN(c1nc(-c2ccc(F)cc2)c(C#N)s1)c1c2c(nc3c(F)cc(N4CC5(CN(C(=O)C(C)(C)O)C5)C4)cc13)COC2 [Example C21] | 49.1 nM | –
16 | CN(c1nc(-c2ccc(F)cc2)c(C#N)s1)c1c2c(nc3c(F)cc(N4CC5(CN(C(=O)C6(O)CC6)C5)C4)cc13)COC2 [Example C22] | 73 nM | –
17 | CN(c1nc(-c2ccc(F)cc2)c(C#N)s1)c1c2c(nc3c(F)cc(N4CCN(CC(=O)N5CC(O)C5)CC4)cc13)C(=O)CC2 [Example E2] | 3.46 nM | –
18 | CN(c1nc(-c2ccc(F)cc2)c(C#N)s1)c1c2c(nc3c(F)cc(N4CC5(CN(C(=O)[C@H]6CCOC6)C5)C4)cc13)C(=O)CC2 [Example E3] | 30.7 nM | –
19 | CN(c1nc(-c2ccc(F)cc2)c(C#N)s1)c1c2c(nc3c(F)cc(N4CC5(CN(C(=O)[C@@H]6CCOC6)C5)C4)cc13)C(=O)CC2 [Example E4] | 24.5 nM | –
20 | CN(c1nc(-c2ccc(F)cc2)c(C#N)s1)c1c2c(nc3c(F)cc(N4CC5(CN(C(=O)C6CCOC6)C5)C4)cc13)C(O)CC2 (centres unmarked) [Example E5] | 21.8 nM | –
21 | CN(c1nc(-c2ccc(F)cc2)c(C#N)s1)c1c2c(nc3c(F)cc(N4CC5(CN(CC(=O)N6CCCC6)C5)C4)cc13)C(O)CC2 (centres unmarked) [Example E11] | 35.7 nM | –
22 | CN(c1nc(-c2ccc(F)cc2)c(C#N)s1)c1c2c(nc3c(F)cc(N4CC5(CN(CC(=O)N6CC[C@H](O)C6)C5)C4)cc13)C(O)CC2 (some centres unmarked) [Example E12] | 97.6 nM | –
23 | CN(c1nc(-c2ccc(F)cc2)c(C#N)s1)c1c2c(nc3c(F)cc(N4CC5(CN(C(=O)[C@@H]6CCOC6)C5)C4)cc13)C(O)CC2 (some centres unmarked) [Example E13] | 23.5 nM | –
24 | CN(c1nc(-c2ccc(F)cc2)c(C#N)s1)c1c2c(nc3c(F)cc(N4CC5(CN(C(=O)C6(O)CCOC6)C5)C4)cc13)C(O)CC2 (centres unmarked) [Example E19] | 20.4 nM | –
25 | CN(c1nc(-c2ccc(F)cc2)c(C#N)s1)c1c2c(nc3c(F)cc(N4CC5(CN(C(=O)C6COCC6O)C5)C4)cc13)C(O)CC2 (centres unmarked) [Example E20] | 23.5 nM | –
26 | CN(c1nc(-c2ccc(F)cc2)c(C#N)s1)c1c2c(nc3c(F)cc(N4CCN(CC(=O)NO)CC4)cc13)CC2 [Example F1] | 44.9 nM | –
27 | CN(c1nc(-c2ccc(F)cc2)c(C#N)s1)c1c2c(nc3c(F)cc(N4CCN(CC(=O)N5CC6(CC(O)C6)C5)CC4)cc13)CC2 [Example F2] | 65.2 nM | –
28 | CN(c1nc(-c2ccc(F)cc2)c(C#N)s1)c1c2c(nc3c(F)cc(N4CCN(CC(=O)N5CC6(CCOCC6)C5)CC4)cc13)CC2 [Example F3] | 60.6 nM | –
29 | CN(c1nc(-c2ccc(F)cc2)c(C#N)s1)c1c2c(nc3c(F)cc(N4CCN(CC(=O)N5CC6(CCS(=O)(=O)CC6)C5)CC4)cc13)CC2 [Example F4] | 19.6 nM | –
30 | CN(c1nc(-c2ccc(F)cc2)c(C#N)s1)c1c2c(nc3c(F)cc(N4CCN(CC(=O)N5CC6(CCC(O)CC6)C5)CC4)cc13)CC2 [Example F5] | 19.9 nM | –

Reference: US20250051321A1, “TRICYCLIC DERIVATIVE AND PREPARATION METHOD THEREFOR AND APPLICATION THEREOF” (SHANGHAI JEMINCARE PHARMACEUTICAL CO., LTD., priority 2021, published 2025)
